Laboratory results as given in US9278994B2, “Short antimicrobial lipopeptides” (Helix BioMedix Inc., priority 2012, dated 2016).
≈ marks a conversion by molar mass, not a printed value. Where a SMILES comes first, the peptide text is derived from it. [ ]: non-standard residue; d: D form. The star is where a group is joined. Stearoyl = CCCCCCCCCCCCCCCCCC(=O)*; Palmitoyl = CCCCCCCCCCCCCCCC(=O)*; Myristoyl = CCCCCCCCCCCCCC(=O)*; Undecanoyl = CCCCCCCCCCC(=O)*; Lauroyl = CCCCCCCCCCCC(=O)*; Decanoyl = CCCCCCCCCC(=O)*; Octanoyl = CCCCCCCC(=O)*

Experiments:
P. acnes = assay type: cell-based, Propionibacterium acnes
Procedure: (§1) 2. Bacterial strains and culture conditions. E. coli UB1005, S. aureus SAP0017 (MRSA) and C. albicans 105 were grown in Mueller Hinton (MH) (Difco, BD Biosciences, MD) agar plates and broth (2 g of beef extract, 17.5 g of acid hydrolysis of casein and 1.5 g of starch per liter) at 37° C. unless otherwise indicated. Bacteria from frozen stock were subcultured onto freshly made MH agar plates prior to susceptibility testing. For P. acnes, the bacterium was grown in BBL™ Brain-Heart infusion (Becton, Dickinson & Company, Sparks Md.) broth or agar plates at 37° C. in anaerobic condition generated using a anaerobic jar and AnaeroGen™ (Oxoid, Basingstoke, Hampshire, England).
(§2) 3. […] The minimal inhibitory concentration (MIC) of each peptide was determined using modified CLSI microtiter broth dilution assay (Methods for Dilution Antimicrobial Susceptibility Tests for Bacteria That Grow Aerobically; Approved Standard—Ninth Edition). An inoculum of 10^5-10^6 colony forming units (CFU)/ml was used or 10^4 CFU/ml for yeast. The MIC value was taken as the lowest peptide concentration at which more than 90% of microbial growth was inhibited after 15 to 20 h of incubation at 37° C. For P. acnes, the incubation was kept under anaerobic condition at 37° C. for 2 weeks before MIC was determined Kill kinetics was performed using a given concentration (about 2-5-fold MIC) of peptide mixed with indicator microorganism. After appropriate dilution the cells were plated on agar plates after defined time intervals and incubated at 37° C. overnight. In the case of P. acnes an extended incubation period was required. The CFU was counted and plotted as survival of bacteria after peptide treatment over time, which indicates the effectiveness of a peptide to kill a microbe.

E. coli UB1005 = test system: E. coli UB1005
Procedure: (§3) We conducted the minimal inhibitory concentration (MIC) determination using CLSI (Clinical and Laboratory standard Institute) recommended standard protocol for antimicrobials (Methods for Dilution Antimicrobial Susceptibility Tests for Bacteria That Grow Aerobically; Approved Standard—Ninth Edition).
as §1, §2

S. aureus SAP0017 (MRSA) = test system: S. aureus SAP0017 (MRSA)
Procedure: as §3, §1, §2

C. albicans 105 = test system: C. albicans 105
Procedure: as §3, §1, §2

CCCCCCCCCC(=O)N[C@@H](CCCCN)C(=O)N1CCC[C@@H]1C(=O)N[C@H](C(N)=O)[C@@H](C)O [HB2179, Dec-K-dPT-NH2] (Decanoyl-Lys-[dP]-Thr-NH2)
MIC P. acnes (P. acnes): >2000 µg/mL
MIC E. coli (E. coli UB1005): >2000 µg/mL
MIC S. aureus (S. aureus SAP0017 (MRSA)): >2000 µg/mL
MIC C. albicans (C. albicans 105): >2000 µg/mL

CCCCCCCCCC(=O)N[C@@H](CCCCN)C(=O)N1CCC[C@H]1C(=O)N[C@H](C(N)=O)C(C)C [HB2181, Dec-KPV-NH2] (Decanoyl-Lys-Pro-Val-NH2)
MIC P. acnes (P. acnes): 1000 µg/mL (≈ 2020 µM)
MIC E. coli (E. coli UB1005): >2000 µg/mL
MIC S. aureus (S. aureus SAP0017 (MRSA)): >2000 µg/mL
MIC C. albicans (C. albicans 105): >2000 µg/mL

CCCCCCCCCC(=O)N[C@@H](CCCCN)C(=O)N1CCC[C@@H]1C(=O)N[C@H](C(=O)O)[C@@H](C)O [HB2183, Dec-KdPT-OH] (Decanoyl-Lys-[dP]-Thr-OH)
MIC P. acnes (P. acnes): >2000 µg/mL
MIC E. coli (E. coli UB1005): >2000 µg/mL
MIC S. aureus (S. aureus SAP0017 (MRSA)): >2000 µg/mL
MIC C. albicans (C. albicans 105): >2000 µg/mL

CCCCCCCCCC(=O)N[C@@H](CCCCN)C(=O)N1CCC[C@H]1C(=O)N[C@H](C(=O)O)C(C)C [HB2185, Dec-KPV-OH] (Decanoyl-Lys-Pro-Val-OH)
MIC P. acnes (P. acnes): >2000 µg/mL
MIC E. coli (E. coli UB1005): >2000 µg/mL
MIC S. aureus (S. aureus SAP0017 (MRSA)): >2000 µg/mL
MIC C. albicans (C. albicans 105): >2000 µg/mL

CCCCCCCC(=O)N[C@@H](CCCCN)C(=O)N1CCC[C@H]1C(=O)N[C@H](C(N)=O)C(C)C [HB2188, Octanoyl-KPV-NH2] (Octanoyl-Lys-Pro-Val-NH2)
MIC P. acnes (P. acnes): >2000 µg/mL
MIC E. coli (E. coli UB1005): >2000 µg/mL
MIC S. aureus (S. aureus SAP0017 (MRSA)): >2000 µg/mL
MIC C. albicans (C. albicans 105): >2000 µg/mL

CCCCCCCCCCC(=O)N[C@@H](CCCCN)C(=O)N1CCC[C@H]1C(=O)N[C@H](C(N)=O)C(C)C [HB2189, Undecoyl-KPV-NH2] (Undecanoyl-Lys-Pro-Val-NH2)
MIC P. acnes (P. acnes): 256 to 500 µg/mL
MIC E. coli (E. coli UB1005): 2000 µg/mL (≈ 3920 µM)
MIC S. aureus (S. aureus SAP0017 (MRSA)): 1000 µg/mL (≈ 1960 µM)
MIC C. albicans (C. albicans 105): >2000 µg/mL

CCCCCCCCCCCC(=O)N[C@@H](CCCCN)C(=O)N1CCC[C@H]1C(=O)N[C@H](C(N)=O)C(C)C [HB2190, Lauroyl-KPV-NH2] (Lauroyl-Lys-Pro-Val-NH2)
MIC P. acnes (P. acnes): 64 µg/mL (≈ 122 µM)
MIC E. coli (E. coli UB1005): 250 µg/mL (≈ 477 µM)
MIC S. aureus (S. aureus SAP0017 (MRSA)): 250 µg/mL (≈ 477 µM)
MIC C. albicans (C. albicans 105): >2000 µg/mL

CCCCCCCCCCCCCC(=O)N[C@@H](CCCCN)C(=O)N1CCC[C@H]1C(=O)N[C@H](C(N)=O)C(C)C [HB2191, Myristoyl-KPV-NH2] (Myristoyl-Lys-Pro-Val-NH2)
MIC P. acnes (P. acnes): 16 µg/mL (≈ 29 µM)
MIC E. coli (E. coli UB1005): 500 µg/mL (≈ 906 µM)
MIC S. aureus (S. aureus SAP0017 (MRSA)): 250 µg/mL (≈ 453 µM)
MIC C. albicans (C. albicans 105): 250 µg/mL (≈ 453 µM)

CCCCCCCCCCCCCCC(=O)N[C@@H](CCCCN)C(=O)N1CCC[C@H]1C(=O)N[C@H](C(N)=O)C(C)C [HB2192, Pentadecanoyl-KPV-NH2]
MIC P. acnes (P. acnes): 1 µg/mL (≈ 1.77 µM)
MIC E. coli (E. coli UB1005): 64 µg/mL (≈ 113 µM)
MIC S. aureus (S. aureus SAP0017 (MRSA)): 16 µg/mL (≈ 28.3 µM)
MIC C. albicans (C. albicans 105): 32 µg/mL (≈ 56.6 µM)

CCCCCCCCCCCCCCCCCC(=O)N[C@@H](CCCCN)C(=O)N1CCC[C@H]1C(=O)N[C@H](C(N)=O)C(C)C [HB2194, Stearoyl-KPV-NH2] (Stearoyl-Lys-Pro-Val-NH2)
MIC P. acnes (P. acnes): 1 to 2 µg/mL
MIC E. coli (E. coli UB1005): >2000 µg/mL
MIC S. aureus (S. aureus SAP0017 (MRSA)): 16 µg/mL (≈ 26.3 µM)
MIC C. albicans (C. albicans 105): 16 µg/mL (≈ 26.3 µM)

CCCCCCCC(=O)N[C@@H](CCCCN)C(=O)N1CCC[C@@H]1C(=O)N[C@H](C(N)=O)[C@@H](C)O [HB2195, Octanoyl-KdPT-NH2] (Octanoyl-Lys-[dP]-Thr-NH2)
MIC P. acnes (P. acnes): >2000 µg/mL
MIC E. coli (E. coli UB1005): >2000 µg/mL
MIC S. aureus (S. aureus SAP0017 (MRSA)): >2000 µg/mL
MIC C. albicans (C. albicans 105): >2000 µg/mL

CCCCCCCCCCC(=O)N[C@@H](CCCCN)C(=O)N1CCC[C@@H]1C(=O)N[C@H](C(N)=O)[C@@H](C)O [HB2196, Undecoyl-KdPT-NH2] (Undecanoyl-Lys-[dP]-Thr-NH2)
MIC P. acnes (P. acnes): 256 to 500 µg/mL
MIC E. coli (E. coli UB1005): 2000 µg/mL (≈ 3910 µM)
MIC S. aureus (S. aureus SAP0017 (MRSA)): 1000 µg/mL (≈ 1950 µM)
MIC C. albicans (C. albicans 105): 1000 µg/mL (≈ 1950 µM)

CCCCCCCCCCCC(=O)N[C@@H](CCCCN)C(=O)N1CCC[C@@H]1C(=O)N[C@H](C(N)=O)[C@@H](C)O [HB2197, Lauroyl-kdPT-NH2] (Lauroyl-Lys-[dP]-Thr-NH2)
MIC P. acnes (P. acnes): 128 µg/mL (≈ 243 µM)
MIC E. coli (E. coli UB1005): 1000 µg/mL (≈ 1900 µM)
MIC S. aureus (S. aureus SAP0017 (MRSA)): 500 µg/mL (≈ 951 µM)
MIC C. albicans (C. albicans 105): 500 µg/mL (≈ 951 µM)

CCCCCCCCCCCCCC(=O)N[C@@H](CCCCN)C(=O)N1CCC[C@@H]1C(=O)N[C@H](C(N)=O)[C@@H](C)O [HB2198, Myristoyl-KdPT-NH2] (Myristoyl-Lys-[dP]-Thr-NH2)
MIC P. acnes (P. acnes): 8 to 16 µg/mL
MIC E. coli (E. coli UB1005): 128 µg/mL (≈ 231 µM)
MIC S. aureus (S. aureus SAP0017 (MRSA)): 64 µg/mL (≈ 116 µM)
MIC C. albicans (C. albicans 105): 64 µg/mL (≈ 116 µM)

CCCCCCCCCCCCCCC(=O)N[C@@H](CCCCN)C(=O)N1CCC[C@@H]1C(=O)N[C@H](C(N)=O)[C@@H](C)O [HB2199, Pentadecanoyl-KdPT-NH2]
MIC P. acnes (P. acnes): 2 to 4 µg/mL
MIC E. coli (E. coli UB1005): 64 µg/mL (≈ 113 µM)
MIC S. aureus (S. aureus SAP0017 (MRSA)): 32 µg/mL (≈ 56.4 µM)
MIC C. albicans (C. albicans 105): 32 µg/mL (≈ 56.4 µM)

CCCCCCCCCCCCCCCC(=O)N[C@@H](CCCCN)C(=O)N1CCC[C@@H]1C(=O)N[C@H](C(N)=O)[C@@H](C)O [HB2200, Pal-K-dPT-NH2] (Palmitoyl-Lys-[dP]-Thr-NH2)
MIC P. acnes (P. acnes): 2 µg/mL (≈ 3.44 µM)
MIC E. coli (E. coli UB1005): 64 µg/mL (≈ 110 µM)
MIC S. aureus (S. aureus SAP0017 (MRSA)): 4 µg/mL (≈ 6.87 µM)
MIC C. albicans (C. albicans 105): 16 µg/mL (≈ 27.5 µM)

CCCCCCCCCCCCCCCCCC(=O)N[C@@H](CCCCN)C(=O)N1CCC[C@@H]1C(=O)N[C@H](C(N)=O)[C@@H](C)O [HB2201, Stearoyl-K-dPT-NH2] (Stearoyl-Lys-[dP]-Thr-NH2)
MIC P. acnes (P. acnes): 1 to 2 µg/mL
MIC E. coli (E. coli UB1005): 128 µg/mL (≈ 210 µM)
MIC S. aureus (S. aureus SAP0017 (MRSA)): 16 µg/mL (≈ 26.2 µM)
MIC C. albicans (C. albicans 105): 8 µg/mL (≈ 13.1 µM)

CCCCCCCCCCCCCCCC(=O)N1CCC[C@H]1C(=O)N[C@H](C(N)=O)C(C)C [HB2205, Pal-PV-NH2] (Palmitoyl-Pro-Val-NH2)
MIC P. acnes (P. acnes): >2000 µg/mL
MIC E. coli (E. coli UB1005): >2000 µg/mL
MIC S. aureus (S. aureus SAP0017 (MRSA)): >2000 µg/mL
MIC C. albicans (C. albicans 105): >2000 µg/mL

CCCCCCCCCCCCCCCC(=O)N1CCC[C@@H]1C(=O)N[C@@H](CO)C(N)=O [HB2207, Pal-dPS-NH2] (Palmitoyl-[dP]-Ser-NH2)
MIC P. acnes (P. acnes): 32 µg/mL (≈ 72.8 µM)
MIC E. coli (E. coli UB1005): >2000 µg/mL
MIC S. aureus (S. aureus SAP0017 (MRSA)): >2000 µg/mL
MIC C. albicans (C. albicans 105): >2000 µg/mL

CCCCCCCCCCCCCCCC(=O)N[C@@H](CCCCN)C(=O)N[C@H](C(N)=O)[C@@H](C)O [HB2236, Pal-KT-NH2]
MIC P. acnes (P. acnes): 256 to 1000 µg/mL
MIC E. coli (E. coli UB1005): >2000 µg/mL
MIC S. aureus (S. aureus SAP0017 (MRSA)): >2000 µg/mL
MIC C. albicans (C. albicans 105): >2000 µg/mL

CCCCCCCCCCCCCCCC(=O)N[C@@H](CCCCN)C(=O)N[C@@H](C(N)=O)[C@H](C)O [HB2237, Pal-K-dT-NH2]
MIC P. acnes (P. acnes): 128 to 256 µg/mL
MIC E. coli (E. coli UB1005): >2000 µg/mL
MIC S. aureus (S. aureus SAP0017 (MRSA)): >2000 µg/mL
MIC C. albicans (C. albicans 105): >2000 µg/mL

CCCCCCCCCCCCCCCC(=O)N[C@@H](CCCCN)C(=O)N[C@@H](CCCCN)C(N)=O [HB2238, Pal-KK-NH2]
MIC E. coli (E. coli UB1005): 2 µg/mL (≈ 3.91 µM)
MIC S. aureus (S. aureus SAP0017 (MRSA)): 4 µg/mL (≈ 7.82 µM)
MIC C. albicans (C. albicans 105): 16 µg/mL (≈ 31.3 µM)

CCCCCCCCCCCCCCCC(=O)N[C@@H](CCCCN)C(=O)N[C@@H](CC(=O)O)C(N)=O [HB2252, Pal-KD-NH2] (Palmitoyl-Lys-Asp-NH2)
MIC E. coli (E. coli UB1005): >2000 µg/mL
MIC S. aureus (S. aureus SAP0017 (MRSA)): >2000 µg/mL
MIC C. albicans (C. albicans 105): >2000 µg/mL
